Targets include D(2) dopamine receptor (Rattus norvegicus, UniProt P61169); D(3) dopamine receptor (Rattus norvegicus, UniProt P19020); D(1A) dopamine receptor (Rattus norvegicus, UniProt P18901).
A further assay has as its target T1, D(4) dopamine receptor (Rattus norvegicus, UniProt P30729).
T1 sequence (P30729 whole entry): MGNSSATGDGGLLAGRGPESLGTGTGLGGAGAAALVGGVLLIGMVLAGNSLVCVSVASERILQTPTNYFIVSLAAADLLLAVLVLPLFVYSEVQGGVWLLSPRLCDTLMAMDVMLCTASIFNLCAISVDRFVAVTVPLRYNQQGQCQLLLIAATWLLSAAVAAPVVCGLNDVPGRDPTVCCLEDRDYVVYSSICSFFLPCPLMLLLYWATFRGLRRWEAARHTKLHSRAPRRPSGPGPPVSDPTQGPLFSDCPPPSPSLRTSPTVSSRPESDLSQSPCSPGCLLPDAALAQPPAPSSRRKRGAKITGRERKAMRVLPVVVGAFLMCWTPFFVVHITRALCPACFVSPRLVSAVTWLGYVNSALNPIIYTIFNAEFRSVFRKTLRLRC

pKi: −log10 of the molar value. Values joined by “and” are separate entries in the source; they are usually repeats but may differ in a detail not shown here. Equal values may be shown once. Where a name gives a salt, the structure may show the parent alone.

Broadly, the pKi is the Ki on a negative log10 scale, so that one unit is a factor of ten. A lower pKi goes with a high Ki.

D(3) dopamine receptor, sequence (P19020 whole entry): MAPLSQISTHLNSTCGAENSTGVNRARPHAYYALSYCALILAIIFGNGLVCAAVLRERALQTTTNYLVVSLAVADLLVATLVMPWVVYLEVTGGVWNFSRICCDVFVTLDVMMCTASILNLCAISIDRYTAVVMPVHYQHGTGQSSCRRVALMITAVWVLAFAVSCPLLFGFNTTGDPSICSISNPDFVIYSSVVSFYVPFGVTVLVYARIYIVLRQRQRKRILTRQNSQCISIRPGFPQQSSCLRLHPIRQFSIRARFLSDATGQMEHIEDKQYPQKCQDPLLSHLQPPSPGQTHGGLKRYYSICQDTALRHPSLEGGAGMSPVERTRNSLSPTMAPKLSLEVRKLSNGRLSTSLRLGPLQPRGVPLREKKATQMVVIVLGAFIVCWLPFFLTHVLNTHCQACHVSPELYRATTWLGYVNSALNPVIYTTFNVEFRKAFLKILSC
D(2) dopamine receptor, sequence (P61169 whole entry): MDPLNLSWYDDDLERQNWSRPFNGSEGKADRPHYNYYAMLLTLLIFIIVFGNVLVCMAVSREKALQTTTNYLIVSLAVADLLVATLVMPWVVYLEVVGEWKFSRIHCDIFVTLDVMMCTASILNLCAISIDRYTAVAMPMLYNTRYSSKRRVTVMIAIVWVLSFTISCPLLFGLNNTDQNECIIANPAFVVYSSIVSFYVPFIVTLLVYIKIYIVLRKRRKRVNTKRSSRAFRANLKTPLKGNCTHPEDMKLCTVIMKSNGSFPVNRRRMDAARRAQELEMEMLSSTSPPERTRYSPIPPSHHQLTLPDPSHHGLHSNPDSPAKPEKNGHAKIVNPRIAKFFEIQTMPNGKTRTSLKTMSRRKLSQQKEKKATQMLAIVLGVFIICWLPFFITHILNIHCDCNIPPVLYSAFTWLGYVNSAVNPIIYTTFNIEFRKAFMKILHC
D(1A) dopamine receptor, sequence (P18901 whole entry): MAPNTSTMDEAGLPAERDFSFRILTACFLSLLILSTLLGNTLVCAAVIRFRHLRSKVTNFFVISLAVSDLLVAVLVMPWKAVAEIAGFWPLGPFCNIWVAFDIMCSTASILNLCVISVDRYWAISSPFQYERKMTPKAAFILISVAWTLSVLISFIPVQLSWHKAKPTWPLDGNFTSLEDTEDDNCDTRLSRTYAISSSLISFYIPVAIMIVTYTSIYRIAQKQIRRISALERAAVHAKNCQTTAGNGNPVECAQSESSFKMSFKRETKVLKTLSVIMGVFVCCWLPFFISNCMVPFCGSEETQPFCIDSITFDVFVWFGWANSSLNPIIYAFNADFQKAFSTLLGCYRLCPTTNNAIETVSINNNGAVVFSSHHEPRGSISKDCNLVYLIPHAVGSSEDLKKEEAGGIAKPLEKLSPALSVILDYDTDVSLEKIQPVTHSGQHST

Turning to `Cc1ccc2c3c1CNC[C@H]3c1ccc(O)c(O)c1C2` (racemic) [Dinapsoline,(+/-)-4-Methyl], the pKi is 7.44 and 7.72 on D(2) dopamine receptor; 7.74 on D(3) dopamine receptor; 7.08 at D(4) dopamine receptor.

As for `Cc1ccc2c3c1Cc1c(ccc(O)c1O)[C@@H]3CNC2` (racemic) [Dinapsoline,(+/-)-6-Methyl], the pKi at D(2) dopamine receptor is 6.72 and 7.24; at D(3) dopamine receptor it was 7.55; at D(4) dopamine receptor it was 6.66.

With `C=CCN1Cc2cccc3c2[C@@H](C1)c1ccc(O)c(O)c1C3` (racemic) [Dinapsoline,(+/-)-N-allyl], the values for the pKi at D(3) dopamine receptor and on D(4) dopamine receptor were 7.85 and 7.32, respectively.

With `CCCN1Cc2ccccc2[C@H]2c3cc(O)c(O)cc3CC[C@@H]21` [Dihydrexidine, N-propyl], the pKi was 8.06 at D(3) dopamine receptor and 6.74 on D(1A) dopamine receptor.

In the case of `CCCN1Cc2c(C)cccc2[C@H]2c3cc(O)c(O)cc3CC[C@@H]21` [Dihydrexidine, 4-methyl-N-propyl], the pKi at D(3) dopamine receptor was 8.68; at D(1A) dopamine receptor, 7.63.

Regarding `CCCN1Cc2cccc3c2[C@@H](C1)c1ccc(O)c(O)c1C3` (racemic) [(+/-)-2-propyldinapsoline hydrobromide], the pKi was 7.41 and 7.22 on D(2) dopamine receptor; 8.55 on D(3) dopamine receptor; 6.77 and 5.92 and 6.18 at D(1A) dopamine receptor; 7.77 at D(4) dopamine receptor.

Regarding `C=CCN1Cc2c(C)ccc3c2[C@@H](C1)c1ccc(O)c(O)c1C3` (racemic) [Dinapsoline,(+/-)-4-Methyl-N-allyl], the pKi was 7.44 and 7.31 at D(2) dopamine receptor; 8.37 on D(3) dopamine receptor; 7.25 and 6.85 on D(1A) dopamine receptor; 7.20 on D(4) dopamine receptor.

Consider `Cc1cccc2c1CN[C@H]1CCc3cc(O)c(O)cc3[C@H]21` [Dihydrexidine, 4-methyl], for which the pKi at D(2) dopamine receptor is 6.17; at D(3) dopamine receptor, 7.07; on D(1A) dopamine receptor, 8.18 and 7.74.

Regarding `Oc1ccc2c(c1O)Cc1cccc3c1[C@H]2CNC3` [Dinapsoline, (R)(+)], the pKi on D(4) dopamine receptor is 7.22.

For the compound `CCCN1Cc2c(C)ccc3c2[C@@H](C1)c1ccc(O)c(O)c1C3` (racemic) [Dinapsoline,(+/-)-4-Methyl-N-propyl], the pKi at D(2) dopamine receptor is 7.64 and 7.68; at D(3) dopamine receptor it was 8.60; on D(1A) dopamine receptor, 6.70 and 5.85; at D(4) dopamine receptor it was 7.55.
